Where a name gives a salt, the structure may show the parent alone.
Target: T1, human β-Secretase (Homo sapiens, UniProt P56817)
T1 construct: soluble part of the human β-Secretase (AA 1-AA 460); Fc domain of IgG1 (C); made in house
Test: TR-FRET assay
Assay type: biochemical
Conditions: sBACE-Fc, substrate (Europium)CEVNLDAEFK(Qsy7) 100 nM, pH4.5, unit not in table
Method: The β-secretase enzyme used in the TR-FRET is prepared as follows:
The cDNA for the soluble part of the human β-Secretase (AA 1-AA 460) was cloned using the ASP2-Fc10-1-IRES-GFP-neoK mammalian expression vector. The gene was fused to the Fc domain of IgG1 (affinity tag) and stably cloned into HEK 293 cells.
The enzyme (truncated form) was diluted to 6 μg/mL (stock 1.3 mg/mL) and the substrate (Europium)CEVNLDAEFK(Qsy7) to 200 nM (stock 120 μM) in reaction buffer (NaAcetate, chaps, triton x-100, EDTA pH4.5). The robotic systems Biomek FX and Velocity 11 were used for all liquid handling and the enzyme and substrate solutions were kept on ice until they were placed in the robotic system. Enzyme (9 μl) was added to the plate then 1 μl of compound in dimethylsulphoxide was added, mixed and pre-incubated for 10 minutes. Substrate (10 μl) was then added, mixed and the reaction proceeded for 15 minutes at room temperature. The reaction was stopped with the addition of Stop solution (7 μl, NaAcetate, pH 9). The fluorescence of the product was measured on a Victor II plate reader with an excitation wavelength of 340 nm and an emission wavelength of 615 nm. The assay was performed in a Costar 384 well round bottom, low volume, non-binding surface plate (Corning #3676). […] The dimethylsulphoxide control, instead of test compound, defined the 100% activity level and 0% activity was defined by wells lacking enzyme (replaced with reaction buffer).

T1 sequence (P56817 22-460): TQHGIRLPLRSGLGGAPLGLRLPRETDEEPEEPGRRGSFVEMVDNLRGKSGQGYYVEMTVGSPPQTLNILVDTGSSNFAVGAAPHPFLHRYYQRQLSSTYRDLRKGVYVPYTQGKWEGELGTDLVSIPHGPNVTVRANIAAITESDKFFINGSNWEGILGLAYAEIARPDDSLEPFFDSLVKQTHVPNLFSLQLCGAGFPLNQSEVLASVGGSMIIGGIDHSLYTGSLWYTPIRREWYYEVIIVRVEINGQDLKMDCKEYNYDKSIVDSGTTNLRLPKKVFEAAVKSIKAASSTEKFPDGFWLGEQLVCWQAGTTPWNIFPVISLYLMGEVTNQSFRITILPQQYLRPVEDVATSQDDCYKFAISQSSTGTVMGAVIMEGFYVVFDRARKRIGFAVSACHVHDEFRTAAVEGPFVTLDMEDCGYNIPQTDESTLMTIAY

Structure (SMILES) | IC50
COc1ncc(C2(c3cccc(OCC(C)C)c3)N=C(N)c3ncccc32)cc1C (stereo not drawn) [Example 16, 5-(3-Isobutoxyphenyl)-5-(6-methoxy-5-methylpyridin-3-yl)-5H-pyrrolo[3,4-b]pyridin-7-amine acetate] | 3100 nM
NC1=NC(c2cccc(OCCC(F)F)c2)(c2ccnc(C(F)(F)F)c2)c2cccnc21 (stereo not drawn) [Example 21, 5-(3-(3,3-Difluoropropoxy)phenyl)-5-(2-(trifluoromethyl)pyridin-4-yl)-5H-pyrrolo[3,4-b]pyridin-7-amine trifluoroacetic acid salt] | 1150 nM
Cc1cc(C2(c3cccc(OCC(C)C)c3)N=C(N)c3ncccc32)cc(C)n1 (stereo not drawn) [Example 15, 5-(2,6-Dimethylpyridin-4-yl)-5-(3-isobutoxyphenyl)-5H-pyrrolo[3,4-b]pyridin-7-amine acetate] | 3800 nM
NC1=NC(c2ccncc2)(c2cccc(OC3CCC3)c2)c2cccnc21 (stereo not drawn) [Example 9, 5-(3-Cyclobutoxyphenyl)-5-(pyridin-4-yl)-5H-pyrrolo[3,4-b]pyridin-7-amine] | 8000 nM
CC(C)COc1cccc(C2(c3ccc(OC(F)F)nc3)N=C(N)c3ncccc32)c1 (stereo not drawn) [Example 17, acetate] | 1300 nM
CC(C)COc1cccc(C2(c3ccncc3)N=C(N)c3ncccc32)c1 (stereo not drawn) [Example 1, 5-(3-Isobutoxyphenyl)-5-(pyridin-4-yl)-5H-pyrrolo[3,4-b]pyridin-7-amine] | 640 nM
CC(C)COc1cccc(C2(c3ccc(OC(F)F)cc3)N=C(N)c3ncccc32)c1 (stereo not drawn) [Example 18, 5-(4-(Difluoromethoxy)phenyl)-5-(3-isobutoxyphenyl)-5H-pyrrolo[3,4-b]pyridin-7-amine] | 150 nM
Cc1cc(C2(c3cccc(OCCCF)c3)N=C(N)c3ncccc32)cc(OC(F)F)n1 (stereo not drawn) [Example 19, 5-(2-(Difluoromethoxy)-6-methylpyridin-4-yl)-5-(3-(3-fluoropropoxy)phenyl)-5H-pyrrolo[3,4-b]pyridin-7-amine] | 909 nM
NC1=NC(c2ccncc2)(c2cccc(OC3CCCC3)c2)c2cccnc21 (stereo not drawn) [Example 8, 5-(3-(Cyclopentyloxy)phenyl)-5-(pyridin-4-yl)-5H-pyrrolo[3,4-b]pyridin-7-amine] | 3000 nM
NC1=NC(c2cccc(OCCCF)c2)(c2ccnc(OC(F)F)c2)c2cccnc21 (stereo not drawn) [Example 23, 5-(2-(Difluoromethoxy)pyridin-4-yl)-5-(3-(3-fluoropropoxy)phenyl)-5H-pyrrolo[3,4-b]pyridin-7-amine 1.67 acetic acid] | 2620 nM

More lines, in order of falling IC50, values ahead:

IC50 | Structure (SMILES)
26000 nM | COc1cccc(C2(c3ccncc3)N=C(N)c3ncccc32)c1 (stereo not drawn) [Example 9i, 5-(3-Methoxyphenyl)-5-(pyridin-4-yl)-5H-pyrrolo[3,4-b]pyridin-7-amine]
2700 nM | COc1cc(C2(c3cccc(OCCCF)c3)N=C(N)c3ncccc32)ccn1 (stereo not drawn) [Example 12, 5-(3-(3-Fluoropropoxy)phenyl)-5-(2-methoxypyridin-4-yl)-5H-pyrrolo[3,4-b]pyridin-7-amine]
2700 nM | Cc1cc(C2(c3cccc(OCCCF)c3)N=C(N)c3ncccc32)ccn1 (stereo not drawn) [Example 13, 5-(3-(3-Fluoropropoxy)phenyl)-5-(2-methylpyridin-4-yl)-5H-pyrrolo[3,4-b]pyridin-7-amine]
2700 nM | NC1=NC(c2ccncc2)(c2cccc(OCC3CCC3)c2)c2cccnc21 (stereo not drawn) [Example 4, 5-(3-(Cyclobutylmethoxy)phenyl)-5-(pyridin-4-yl)-5H-pyrrolo[3,4-b]pyridin-7-amine]
2400 nM | NC1=NC(c2ccncc2)(c2cccc(OCCCF)c2)c2cccnc21 (stereo not drawn) [Example 10, 5-(3-(3-Fluoropropoxy)phenyl)-5-(pyridin-4-yl)-5H-pyrrolo[3,4-b]pyridin-7-amine]
2300 nM | NC1=NC(c2ccncc2)(c2cccc(OCC3CC3(F)F)c2)c2cccnc21 (stereo not drawn) [Example 5, 5-(3-((2,2-Difluorocyclopropyl)methoxy)phenyl)-5-(pyridin-4-yl)-5H-pyrrolo[3,4-b]pyridin-7-amine]
1700 nM | CC(C)CCOc1cccc(C2(c3ccncc3)N=C(N)c3ncccc32)c1 (stereo not drawn) [Example 2, 5-(3-(Isopentyloxy)phenyl)-5-(pyridin-4-yl)-5H-pyrrolo[3,4-b]pyridin-7-amine]
1500 nM | NC1=NC(c2cccc(OCCCF)c2)(c2ccnc(C(F)(F)F)c2)c2cccnc21 (stereo not drawn) [Example 6, 5-(3-(3-Fluoropropoxy)phenyl)-5-(2-(trifluoromethyl)pyridin-4-yl)-5H-pyrrolo[3,4-b]pyridin-7-amine]
1500 nM | NC1=NC(c2ccncc2)(c2cccc(OCC3CCCC3)c2)c2cccnc21 (stereo not drawn) [Example 3, 5-(3-(Cyclopentylmethoxy)phenyl)-5-(pyridin-4-yl)-5H-pyrrolo[3,4-b]pyridin-7-amine]
1200 nM | NC1=NC(c2cccc(OCC3CCC3)c2)(c2ccnc(C(F)(F)F)c2)c2cccnc21 (stereo not drawn) [Example 7, 5-(3-(Cyclobutylmethoxy)phenyl)-5-(2-(trifluoromethyl)pyridin-4-yl)-5H-pyrrolo[3,4-b]pyridin-7-amine]
960 nM | COc1ccc(C2(c3cccc(OCCCF)c3)N=C(N)c3ncccc32)cc1C(F)(F)F (stereo not drawn) [Example 14, 5-(3-(3-Fluoropropoxy)phenyl)-5-(4-methoxy-3-(trifluoromethyl)phenyl)-5H-pyrrolo[3,4-b]pyridin-7-amine]
779 nM | COc1ccc(C2(c3cccc(OCCCF)c3)N=C(N)c3ncccc32)cc1Cl (stereo not drawn) [Example 20, 5-(3-Chloro-4-methoxyphenyl)-5-(3-(3-fluoropropoxy)phenyl)-5H-pyrrolo[3,4-b]pyridin-7-amine]
337 nM | COc1c(C)cc(C2(c3cccc(OCCC(F)F)c3)N=C(N)c3ncccc32)nc1C (stereo not drawn) [Example 22, 5-(3-(3,3-Difluoropropoxy)phenyl)-5-(5-methoxy-4,6-dimethylpyridin-2-yl)-5H-pyrrolo[3,4-b]pyridin-7-amine acetic acid salt]
81 nM | COc1c(C)cc(C2(c3cccc(OCCCF)c3)N=C(N)c3ncccc32)cc1C (stereo not drawn) [Example 11, 5-(3-(3-Fluoropropoxy)phenyl)-5-(4-methoxy-3,5-dimethylphenyl)-5H-pyrrolo[3,4-b]pyridin-7-amine]

— US20100125087A1, “NEW COMPOUNDS 575” (AstraZeneca AB, priority 2008, published 2010)
